In patent US20250171459A1, “2-METHYL-4',5'-DIHYDROSPIRO[PIPERIDINE-4,7'-THIENO[2,3-C]PYRAN] DERIVATIVES AS INHIBITORS OF APOL1 AND METHODS OF USING SAME” (Vertex Pharmaceuticals Incorporated, priority 2022, published 2025):

Target: T1, APOL1 (Homo sapiens, UniProt O14791)
T1 sequence (O14791 1-398 S342G/I384M): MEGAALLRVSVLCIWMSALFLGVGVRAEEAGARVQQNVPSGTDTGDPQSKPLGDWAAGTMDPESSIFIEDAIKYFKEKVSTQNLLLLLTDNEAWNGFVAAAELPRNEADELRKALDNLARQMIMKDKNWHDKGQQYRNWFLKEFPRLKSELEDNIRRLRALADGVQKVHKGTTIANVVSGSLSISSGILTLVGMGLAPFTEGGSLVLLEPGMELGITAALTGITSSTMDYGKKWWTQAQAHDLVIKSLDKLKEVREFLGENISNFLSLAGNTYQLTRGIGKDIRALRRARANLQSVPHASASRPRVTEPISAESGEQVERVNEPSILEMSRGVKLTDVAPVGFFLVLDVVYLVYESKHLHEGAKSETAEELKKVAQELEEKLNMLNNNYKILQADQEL
Test: MultiTox-Fluor Multiplex Cytotoxicity Assay in tet-inducible APOL1 T-REx-HEK293 cells (cell rescue, ratio of dead to live cells)
Format: cell-based
Conditions: tet-inducible transgenic APOL1 T-REx-HEK293 cell lines, 50 ng/mL tet, 24 hours; read-out: IP50 (i.e., IC50 for cell proliferation)
Outline: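 T-REx-HEK293 cells with tet-inducible APOL1 were treated with compound (10 μM top, 10-point 3-fold dilution, duplicate) plus 50 ng/mL tetracycline for 24 h at 37° C, in DMEM with 2% tet-free FBS. MultiTox-Fluor protease signals gave a dead/live ratio, normalized to no tet (100% viability) and tet alone (0%).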

**Q.** For `C[C@H]1C[C@@]2(CCN1CC1CCN(S(C)(=O)=O)CC1)OC[C@H](O)c1cc(Cl)sc12` [Compound 796], which IC50 is on record?
**A.** 100 to 500 nM

**Q.** How did the IC50 turn out when `COCCc1ncc(CN2CC[C@]3(C[C@@H]2C)OC[C@H](O)c2cc(Cl)sc23)cn1` [Compound 797] was run?
**A.** 100 to 500 nM

**Q.** `C[C@H]1C[C@@]2(CCN1Cc1ccc(OCC(=O)N3CCOCC3)cc1)OC[C@H](O)c1cc(Cl)sc12` [Compound 798] was tested. Which IC50 did it give?
**A.** < 100 nM

**Q.** Which IC50 does the source give for `CC(=O)Nc1ccc(CN2CC[C@]3(C[C@@H]2C)OC[C@H](O)c2cc(Cl)sc23)cc1` [Compound 799] here?
**A.** < 100 nM

**Q.** Which IC50 does the source give for `C[C@H]1C[C@@]2(CCN1Cc1cnc(N3CCOCC3)nc1)OC[C@H](O)c1cc(Cl)sc12` [Compound 800] here?
**A.** < 100 nM

**Q.** How did the IC50 turn out when `C[C@H]1C[C@@]2(CCN1Cc1cccc(F)c1O)OC[C@H](O)c1cc(Cl)sc12` [Compound 801] was run?
**A.** 500 to 1000 nM

**Q.** For `C[C@H]1C[C@@]2(CCN1Cc1ccc(S(C)(=O)=O)cc1)OC[C@H](O)c1cc(Cl)sc12` [Compound 802], which IC50 is on record?
**A.** 100 to 500 nM

**Q.** Which IC50 does the source give for `C[C@H]1C[C@@]2(CCN1Cc1cccc(OCCO)c1)OC[C@H](O)c1cc(Cl)sc12` [Compound 803] here?
**A.** 100 to 500 nM

**Q.** `COc1ccc(CN2CC[C@]3(C[C@@H]2C)OC[C@H](O)c2cc(Cl)sc23)cn1` [Compound 804] was tested. Which IC50 did it give?
**A.** < 100 nM

**Q.** How did the IC50 turn out when `COc1nccc(CN2CC[C@]3(C[C@@H]2C)OC[C@H](O)c2cc(Cl)sc23)n1` [Compound 805] was run?
**A.** 500 to 1000 nM

**Q.** `COc1cncc(CN2CC[C@]3(C[C@@H]2C)OC[C@H](O)c2cc(Cl)sc23)c1` [Compound 806] was tested. Which IC50 did it give?
**A.** 100 to 500 nM

**Q.** With `COc1ncc(CN2CC[C@]3(C[C@@H]2C)OC[C@H](O)c2cc(Cl)sc23)cn1` [Compound 807] as the molecule, how does the IC50 read?
**A.** 100 to 500 nM

**Q.** For `Cc1cccc(CN2CC[C@]3(C[C@@H]2C)OC[C@H](O)c2cc(Cl)sc23)n1` [Compound 808], which IC50 is on record?
**A.** 500 to 1000 nM

**Q.** For `Cc1cncc(CN2CC[C@]3(C[C@@H]2C)OC[C@H](O)c2cc(Cl)sc23)c1` [Compound 809], which IC50 is on record?
**A.** 100 to 500 nM

**Q.** With `C[C@H]1C[C@@]2(CCN1Cc1ccc(C(=O)N(C)C)cc1)OC[C@H](O)c1cc(Cl)sc12` [Compound 810] as the molecule, how does the IC50 read?
**A.** 100 to 500 nM

**Q.** Which IC50 does the source give for `C[C@H]1C[C@@]2(CCN1Cc1ccccn1)OC[C@H](O)c1cc(Cl)sc12` [Compound 811] here?
**A.** 500 to 1000 nM

**Q.** `CNC(=O)c1cccc(CN2CC[C@]3(C[C@@H]2C)OC[C@H](O)c2cc(Cl)sc23)c1` [Compound 812] was tested. Which IC50 did it give?
**A.** 100 to 500 nM

**Q.** With `C[C@H]1C[C@@]2(CCN1Cc1cn(C)nn1)OC[C@H](O)c1cc(Cl)sc12` [Compound 813] as the molecule, how does the IC50 read?
**A.** 100 to 500 nM

**Q.** How did the IC50 turn out when `C[C@H]1C[C@@]2(CCN1CCCn1cccn1)OC[C@H](O)c1cc(Cl)sc12` [Compound 815] was run?
**A.** 500 to 1000 nM

**Q.** For `Cc1cncc(N2CCC(CN3CC[C@]4(C[C@@H]3C)OC[C@H](O)c3cc(Cl)sc34)CC2)n1` [Compound 816], which IC50 is on record?
**A.** 500 to 1000 nM

**Q.** `C[C@H]1C[C@@]2(CCN1Cc1cn[nH]c1)OCC(O)c1cc(Cl)sc12` (some centres unmarked) [Compound 817] was tested. Which IC50 did it give?
**A.** < 100 nM

**Q.** Which IC50 does the source give for `C[C@H]1C[C@@]2(CCN1Cc1cn(CCS(C)(=O)=O)nn1)OCC(=O)c1cc(Cl)sc12` [Compound 822, (2S,4R)-2′-chloro-2-methyl-1-[[1-(2-methylsulfonylethyl)triazol-4-yl]methyl]spiro[piperidine-4,7′-thieno[2,3-c]pyran]-4′-one] here?
**A.** 100 to 500 nM

**Q.** Which IC50 does the source give for `C[C@H]1C[C@@]2(CCN1Cc1cn(CCS(C)(=O)=O)nn1)OCC(O)c1cc(Cl)sc12` (some centres unmarked) [Compound 823] here?
**A.** 100 to 500 nM

**Q.** How did the IC50 turn out when `C[C@H]1C[C@@]2(CCN1Cc1ccc(NS(=O)(=O)C3CC3)nc1)OCC(O)c1cc(Cl)sc12` (some centres unmarked) [Compound 824] was run?
**A.** < 100 nM

**Q.** With `C[C@H]1C[C@@]2(CCN1Cc1cnn(CCS(C)(=O)=O)c1)OC[C@](O)(C(F)F)c1cc(Cl)sc12` [Compound 827, (2′S,4S,7R)-2-chloro-4-(difluoromethyl)-2′-methyl-1′-[[1-(2-methylsulfonylethyl)pyrazol-4-yl]methyl]spiro[5H-thieno[2,3-c]pyran-7,4′-piperidine]-4-ol] as the molecule, how does the IC50 read?
**A.** < 100 nM

**Q.** How did the IC50 turn out when `C[C@H]1C[C@@]2(CCN1Cc1cn[nH]c1)OC[C@](O)(C(F)F)c1cc(Cl)sc12` [Compound 828, (2′S,4S,7R)-2-chloro-4-(difluoromethyl)-2′-methyl-1′-(1H-pyrazol-4-ylmethyl)spiro[5H-thieno[2,3-c]pyran-7,4′-piperidine]-4-ol] was run?
**A.** < 100 nM
